pIC50: −log10 of the molar value.

One series deals with HXB2. As to the kind of experiment: Phenoscreen viral entry inhibition assay, HXB2. It counts as cell-based, HIV. Particulars: Human immunodeficiency virus 1, HXB2, read-out: Viral Entry Inhibition HXB2. As for the experimental part:
(§1) A selected set of compounds were tested for their ability to inhibit the cellular entry of T-tropic HIV. The assay for this inhibition has been carried out on a contractural basis at Monogram Biosciences, Inc. using their well established Phenoscreen™ assay. Briefly, HIV strains of interest are tagged with a luciferase indicator gene to create an appropriate test vector. The test vector is amplified through transfection and the resulting virus is incubated in the presence of target host cells where intracellular florescence activity then becomes a measure of infection. Amplified virus is exposed to target host cells in the presence of a range of test drug concentrations to determine IC50 measurements of entry inhibition. A modification of this test has been further reapplied as a novel drug assay that has been used in partnership with a number of pharmaceutical companies to test the effectiveness of novel entry inhibitors that target specific chemokines. It can used to detect activity against T-tropic, M-tropic, and dual-tropic viruses and Monogram Biosciences has a large bank of over 10,000 different virus strains to ultimately asses the range of applicability of our CXCR4 antagonists. Certain compounds have been tested to establish efficacy in a number of viral strains.

The next series deals with NL4-3. As to the kind of experiment: Phenoscreen viral entry inhibition assay, NL4-3. It is filed as cell-based, HIV. Particulars: Human immunodeficiency virus 1, NL43, read-out: Viral Entry Inhibition NL4-3. As for the experimental part:
as §1

The test system of the next series is Vrs-1. Briefly: Phenoscreen viral entry inhibition assay, Vrs-1. It is filed as cell-based, HIV. The note with it: Human immunodeficiency virus 1, read-out: Viral Entry Inhibition Vrs-1. As for the experimental part: as §1
The next series has as its system Vrs-2. As to the kind of experiment: Phenoscreen viral entry inhibition assay, Vrs-2. Particulars: Human immunodeficiency virus 1, read-out: Viral Entry Inhibition Vrs-2. It counts as cell-based, HIV. As for the experimental part: as §1
In a further series the test system is Vrs-3. As to the kind of experiment: Phenoscreen viral entry inhibition assay, Vrs-3. It is filed as cell-based, HIV. The note with it: Human immunodeficiency virus 1, read-out: Viral Entry Inhibition Vrs-3. As for the experimental part:
as §1

A further series concerns Dual. As to the kind of experiment: Phenoscreen viral entry inhibition assay, Dual. It counts as cell-based, HIV. Particulars: Human immunodeficiency virus 1, read-out: Viral Entry Inhibition Dual. As for the experimental part: as §1
A further series has as its system SHIV. Briefly: Phenoscreen viral entry inhibition assay, SHIV. It is filed as cell-based. As for the experimental part: as §1
In a further series the target is CXCR4 (Homo sapiens, UniProt P61073). As to the kind of experiment: Competition assay using biotin-labeled TN14003 on tumor cells. It counts as binding. The note with it: FIG. 5, cells pre-incubated with various concentrations; read-out: IC50 (biotin-labeled TN14003 detection of CXCR4 after pre-incubation). As for the experimental part:
Biotin-labeled TN14003 was used to detect CXCR4 protein from the cells pre-incubated with various concentrations of WZZL811S.
Using biotin-labeled TN14003 along with streptavidin-conjugated rhodamine allowed a determination of the binding efficiency of these chemicals to the SDF-1 binding site of CXCR4 on tumor cells and compared it to AMD3100-SDF-1 interactions (FIG. 4). […] Cells were pre-incubated with different concentrations of AMD3100. […] Therefore, one of these compounds, WZZL811S, was selected to study its therapeutic potential based on potency and low toxicity to cells (FIG. 6).

Another series has as its system MDA-MB-231 cells. As to the kind of experiment: Cell viability of MDA-MB-231 cells. It is filed as cell-based. Particulars: even at 100 μM (the highest concentration tested).

Chain of CXCR4 (P61073 whole entry): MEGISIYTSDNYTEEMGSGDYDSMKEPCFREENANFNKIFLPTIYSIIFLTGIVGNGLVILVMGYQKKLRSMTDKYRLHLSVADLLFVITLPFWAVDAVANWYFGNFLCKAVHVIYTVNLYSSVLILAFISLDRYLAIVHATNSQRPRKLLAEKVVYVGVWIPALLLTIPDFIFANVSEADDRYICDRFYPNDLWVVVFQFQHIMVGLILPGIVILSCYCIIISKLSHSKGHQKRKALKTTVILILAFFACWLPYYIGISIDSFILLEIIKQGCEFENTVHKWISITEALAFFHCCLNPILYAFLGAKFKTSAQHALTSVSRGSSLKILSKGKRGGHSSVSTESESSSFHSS

For `c1ccc(NCc2ccc(CNc3ccccn3)cc2)nc1` [WZZL811S], the pIC50 is below 4.82 in the series on HXB2; below 4.82 in the series with NL4-3; below 4.82 in the series on Vrs-1; around 4.92 in the series on Vrs-2; below 4.82 in the series on Vrs-3; below 4.82 in the series on Dual. The pIC50 with SHIV is below 4.82; on CXCR4, above 9.00. In the series with MDA-MB-231 cells, the “cell viability of MDA-MB-231 cells” value is reported as “did not decrease cell viability”.

(Values after patent publication US8008312B2, “CXCR4 antagonists for the treatment of HIV infection” (Emory University, priority 2005, dated 2011).)
